Experiment [1] deals with Recombinant Human NF-Kappab-Inducing Kinase (NIK/MAP3K14) (Homo sapiens, UniProt Q99558). The experiment is described as follows: Inhibition of auto-phosphorylation of recombinant human NIK/MAP3K14 (AlphaScreen). Format: biochemical. The conditions noted are these: NIK/MAP3K14 auto-phosphorylation, 5 microM ATP, 1 nM enzyme, 2 h at 25° C.; average of values; read-out: Assay 1 IC50. The procedure, abridged: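 GST-tagged NIK (1 nM) auto-phosphorylation with 5 µM ATP in Tris pH 7.5/MgCl2 buffer, 0.7% DMSO, 2 h at 25 °C. Phospho-IKK Ser176/180 antibody detected by AlphaScreen beads. Signal normalized to full-enzyme and no-ATP controls; IC50 from sigmoidal fit of % inhibition vs log concentration.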
Sequence of Recombinant Human NF-Kappab-Inducing Kinase (NIK/MAP3K14) (Q99558 whole entry): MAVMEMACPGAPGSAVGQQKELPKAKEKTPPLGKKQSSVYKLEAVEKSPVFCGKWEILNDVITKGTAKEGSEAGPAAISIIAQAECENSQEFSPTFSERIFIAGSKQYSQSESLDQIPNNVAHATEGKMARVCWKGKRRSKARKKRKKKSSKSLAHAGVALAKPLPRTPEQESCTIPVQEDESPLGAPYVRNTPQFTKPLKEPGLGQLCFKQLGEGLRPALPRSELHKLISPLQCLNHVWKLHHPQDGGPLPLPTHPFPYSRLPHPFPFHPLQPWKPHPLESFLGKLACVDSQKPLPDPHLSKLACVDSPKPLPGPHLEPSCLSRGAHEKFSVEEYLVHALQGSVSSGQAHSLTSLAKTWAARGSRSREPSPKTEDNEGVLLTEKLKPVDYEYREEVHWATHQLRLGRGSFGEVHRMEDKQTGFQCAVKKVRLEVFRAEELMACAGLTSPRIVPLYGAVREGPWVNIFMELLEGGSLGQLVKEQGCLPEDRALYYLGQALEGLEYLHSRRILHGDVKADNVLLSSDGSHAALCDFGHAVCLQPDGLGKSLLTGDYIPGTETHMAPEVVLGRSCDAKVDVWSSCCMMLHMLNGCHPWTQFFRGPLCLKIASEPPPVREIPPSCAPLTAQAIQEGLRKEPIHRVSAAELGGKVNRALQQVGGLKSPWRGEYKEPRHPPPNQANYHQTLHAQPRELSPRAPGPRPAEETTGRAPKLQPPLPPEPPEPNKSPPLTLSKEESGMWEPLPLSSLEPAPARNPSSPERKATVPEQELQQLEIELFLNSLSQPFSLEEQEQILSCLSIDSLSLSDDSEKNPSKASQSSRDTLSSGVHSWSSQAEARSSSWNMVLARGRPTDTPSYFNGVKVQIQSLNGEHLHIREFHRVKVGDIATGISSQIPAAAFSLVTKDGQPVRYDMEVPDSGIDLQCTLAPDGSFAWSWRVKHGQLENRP

The test system of experiment [2] is p-IKKα levels in L363 (NIK translocated multiple myeloma) cells. The experiment is described as follows: Effect of compounds on p-IKKα levels in L363 cells (AlphaLISA SureFire Ultra). It counts as cell-based. The conditions noted are these: Homo sapiens, L-363; L363 cells, BAFF stimulated, MG132, 6 h; average of values; read-out: Assay 2 IC50. The procedure, abridged:
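L363 myeloma cells were BAFF-stimulated (250 ng/ml) overnight in DMEM/0.5% BSA, then exposed 6 h at 37° C to compound (11-point 1:3 series, 0.3% DMSO) with BAFF plus 10 uM MG132. p-IKKα (Ser 176/180) was read by AlphaLISA SureFire Ultra in lysates. IC50 came from sigmoidal fits normalized to stimulated and unstimulated controls.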

The text below walks through data of patent publication US20250282785A1, “PYRROLIDINONE DERIVATIVES AS INHIBITORS OF NF KAPPA B INDUCING KINASE” (priority 2022, published 2025).

Molecules are shown by their SMILES. Bounds are passed on as bounds.

Take `CN1CC[C@@](O)(c2cc(-c3ccc(-c4cccc(C(N)=O)n4)o3)no2)C1=O` [Example 164, (R)-6-(5-(5-(3-Hydroxy-1-methyl-2-oxopyrrolidin-3-yl)isoxazol-3-yl)furan-2-yl)picolinamide]: the results for the IC50 in experiment [1] and in experiment [2] were less than 100 nM and more than 501 nM, respectively.
`CN1CC[C@@](O)(c2cc(-c3cccc(-n4nc(C(N)=O)c5ccccc54)c3)no2)C1=O` [Example 166, (R)-1-(3-(5-(3-hydroxy-1-methyl-2-oxopyrrolidin-3-yl)isoxazol-3-yl)phenyl)-1H-indazole-3-carboxamide]: the IC50 in experiment [1] was less than 100 nM; in experiment [2], 100 to 500 nM.
The like results for `CN1CC[C@@](O)(c2cc(-c3ccnc(-c4cccc(C(N)=O)n4)c3)no2)C1=O` [Example 168, (R)-4′-(5-(3-Hydroxy-1-methyl-2-oxopyrrolidin-3-yl)isoxazol-3-yl)-[2,2′-bipyridine]-6-carboxamide] were, in that order, less than 100 nM and more than 501 nM.
As to `CN1CC[C@@](O)(c2cc(-c3ccnc(-c4ccc(N)c(C(N)=O)n4)c3)no2)C1=O` [Example 169, (R)-5-Amino-4′-(5-(3-hydroxy-1-methyl-2-oxopyrrolidin-3-yl)isoxazol-3-yl)-[2,2′-bipyridine]-6-carboxamide], the IC50 in experiment [1] and in experiment [2] was less than 100 nM in each case.
In the case of `Cc1nc(N)c2nc(-c3cc(-c4cc([C@]5(O)CCN(C)C5=O)on4)ccn3)ccc2n1` [Example 170, (R)-3-(3-(2-(4-Amino-2-methylpyrido[3,2-d]pyrimidin-6-yl)pyridin-4-yl)isoxazol-5-yl)-3-hydroxy-1-methylpyrrolidin-2-one], the concentration for half-maximal inhibition (IC50) in experiment [1] is less than 100 nM; in experiment [2], more than 501 nM.
In the case of `CN1CC[C@@](O)(c2cc(-c3cccc(-c4nc5c(c(C(N)=O)n4)[C@H]4CC[C@@H](C5)O4)c3)no2)C1=O` [Example 171, (5R,8S)-2-(3-(5-((R)-3-Hydroxy-1-methyl-2-oxopyrrolidin-3-yl)isoxazol-3-yl)phenyl)-6,7,8,9-tetrahydro-5H-5,8-epoxycyclohepta[d]pyrimidine-4-carboxamide], the 50% inhibitory concentration (IC50) was less than 100 nM in experiment [1] and more than 501 nM in experiment [2].
The like results for `CN1CC[C@](O)(c2cc(-c3cccc(-c4nc5c(c(C(N)=O)n4)[C@H]4CC[C@@H](C5)O4)c3)no2)C1=O` [Example 172, (5R,8S)-2-(3-(5-((S)-3-Hydroxy-1-methyl-2-oxopyrrolidin-3-yl)isoxazol-3-yl)phenyl)-6,7,8,9-tetrahydro-5H-5,8-epoxycyclohepta[d]pyrimidine-4-carboxamide] were, in that order, more than 501 nM and more than 501 nM.
For `CN1CC[C@@](O)(c2cc(-c3cccc(-c4nc5c(c(C(N)=O)n4)[C@H]4CC[C@@H](C5)O4)c3)[nH]n2)C1=O` [Example 173, (5R,8S)-2-(3-(5-((R)-3-Hydroxy-1-methyl-2-oxopyrrolidin-3-yl)-1H-pyrazol-3-yl)phenyl)-6,7,8,9-tetrahydro-5H-5,8-epoxycyclohepta[d]pyrimidine-4-carboxamide], the concentration for half-maximal inhibition (IC50) is less than 100 nM in experiment [1] and more than 501 nM in experiment [2].
The like results for `Cc1ccc(-c2cc([C@]3(O)CCN(C)C3=O)no2)cc1-c1nc2c(N)ncnc2s1` [Example 175, (R)-3-(5-(3-(7-Aminothiazolo[5,4-d]pyrimidin-2-yl)-4-methylphenyl)isoxazol-3-yl)-3-hydroxy-1-methylpyrrolidin-2-one] were, in that order, less than 100 nM and more than 501 nM.
The like results for `[2H]C1([2H])N(C)C(=O)[C@](O)(c2cc(-c3cccc(-c4cc(C5CC5)c(N)c(C(N)=O)n4)c3)no2)C1([2H])[2H]` [Example 177, (R)-3-Amino-4-cyclopropyl-6-(3-(5-(3-hydroxy-1-methyl-2-oxopyrrolidin-3-yl-4,4,5,5-d4)isoxazol-3-yl)phenyl)picolinamide] were, in that order, less than 100 nM and less than 100 nM.
The like results for `CN1C(=O)[C@](O)(c2cc(-c3cccc(-c4cc(C5CC5)c(N)c(C(N)=O)n4)c3)no2)C[C@H]1C(F)(F)F` [Example 178, 3-Amino-4-cyclopropyl-6-(3-(5-((3R,5S)-3-hydroxy-1-methyl-2-oxo-5-(trifluoromethyl)pyrrolidin-3-yl)isoxazol-3-yl)phenyl)picolinamide] were, in that order, less than 100 nM and more than 501 nM.
For the compound `[2H]C([2H])([2H])N1CC[C@@](O)(c2cc(-c3cccc(-c4cc(C5CC5)c(N)c(C(N)=O)n4)c3)no2)C1=O` [Example 179, (R)-3-Amino-4-cyclopropyl-6-(3-(5-(3-hydroxy-1-(methyl-d3)-2-oxopyrrolidin-3-yl)isoxazol-3-yl)phenyl)picolinamide], the IC50 in experiment [1] and in experiment [2] was less than 100 nM each time.
As for `[2H]C1([2H])N(C)C(=O)[C@](O)(c2cc(-c3cccc(-c4nc(C(N)=O)n5c4CCCC5)c3)no2)C1([2H])[2H]` [Example 180, (R)-1-(3-(5-(3-Hydroxy-1-methyl-2-oxopyrrolidin-3-yl-4,4,5,5-d4)isoxazol-3-yl)phenyl)-5,6,7,8-tetrahydroimidazo[1,5-a]pyridine-3-carboxamide], the IC50 in experiment [1] is less than 100 nM; in experiment [2], 100 to 500 nM.
With `[2H]C([2H])([2H])N1CC[C@@](O)(c2cc(-c3cccc(-c4nc(C(N)=O)n5c4CCCC5)c3)no2)C1=O` [Example 181, (R)-1-(3-(5-(3-Hydroxy-1-(methyl-d3)-2-oxopyrrolidin-3-yl)isoxazol-3-yl)phenyl)-5,6,7,8-tetrahydroimidazo[1,5-a]pyridine-3-carboxamide], the half-maximal inhibitory concentration (IC50) was less than 100 nM in experiment [1] and 100 to 500 nM in experiment [2].
The like results for `CN1CC[C@@](O)(c2cc(-c3cccc(-c4cc(-c5ccnn5C)cc(C(N)=O)n4)c3)no2)C1=O` [Example 182, (R)-6-(3-(5-(3-Hydroxy-1-methyl-2-oxopyrrolidin-3-yl)isoxazol-3-yl)phenyl)-4-(1-methyl-1H-pyrazol-5-yl)picolinamide] were, in that order, less than 100 nM and more than 501 nM.
The like results for `CN1CC[C@@](O)(c2cc(-c3cccc(-c4cc(-c5ccns5)cc(C(N)=O)n4)c3)no2)C1=O` [Example 183, (R)-6-(3-(5-(3-Hydroxy-1-methyl-2-oxopyrrolidin-3-yl)isoxazol-3-yl)phenyl)-4-(isothiazol-5-yl)picolinamide] were, in that order, less than 100 nM and more than 501 nM.
As to `CN1CC[C@@](O)(c2cc(-c3cccc(-c4cc(-c5cncs5)cc(C(N)=O)n4)c3)no2)C1=O` [Example 184, (R)-6-(3-(5-(3-Hydroxy-1-methyl-2-oxopyrrolidin-3-yl)isoxazol-3-yl)phenyl)-4-(thiazol-5-yl)picolinamide], the IC50 in experiment [1] is less than 100 nM; in experiment [2] it was 100 to 500 nM.
The like results for `CN1CC[C@@](O)(c2cc(-c3cccc(-c4cc(-c5ccnn5C5CC5)cc(C(N)=O)n4)c3)no2)C1=O` [Example 185, (R)-4-(1-Cyclopropyl-1H-pyrazol-5-yl)-6-(3-(5-(3-hydroxy-1-methyl-2-oxopyrrolidin-3-yl)isoxazol-3-yl)phenyl)picolinamide] were, in that order, less than 100 nM and more than 501 nM.
For `Cc1ncc(-c2cc(C(N)=O)nc(-c3cccc(-c4cc([C@]5(O)CCN(C)C5=O)on4)c3)c2)o1` [Example 186, (R)-6-(3-(5-(3-Hydroxy-1-methyl-2-oxopyrrolidin-3-yl)isoxazol-3-yl)phenyl)-4-(2-methyloxazol-5-yl)picolinamide] the same measures were less than 100 nM and 100 to 500 nM.
As to `CCn1cc(-c2cc(C(N)=O)nc(-c3cccc(-c4cc([C@]5(O)CCN(C)C5=O)on4)c3)c2)c(C)n1` [Example 187, (R)-4-(1-Ethyl-3-methyl-1H-pyrazol-4-yl)-6-(3-(5-(3-hydroxy-1-methyl-2-oxopyrrolidin-3-yl)isoxazol-3-yl)phenyl)picolinamide], the IC50 was less than 100 nM in experiment [1] and 100 to 500 nM in experiment [2].
For `CCn1nc(C(F)(F)F)cc1-c1cc(C(N)=O)nc(-c2cccc(-c3cc([C@]4(O)CCN(C)C4=O)on3)c2)c1` [Example 188, (R)-4-(1-Ethyl-3-(trifluoromethyl)-1H-pyrazol-5-yl)-6-(3-(5-(3-hydroxy-1-methyl-2-oxopyrrolidin-3-yl)isoxazol-3-yl)phenyl)picolinamide] the same measures were less than 100 nM and more than 501 nM.
The like results for `COCCn1cc(-c2cc(C(N)=O)nc(-c3cccc(-c4cc([C@]5(O)CCN(C)C5=O)on4)c3)c2)cn1` [Example 189, (R)-6-(3-(5-(3-Hydroxy-1-methyl-2-oxopyrrolidin-3-yl)isoxazol-3-yl)phenyl)-4-(1-(2-methoxyethyl)-1H-pyrazol-4-yl)picolinamide] were, in that order, less than 100 nM and 100 to 500 nM.
The like results for `CN1CC[C@@](O)(c2cc(-c3cccc(-c4cc(-c5c[nH]nc5C5CC5)cc(C(N)=O)n4)c3)no2)C1=O` [Example 190, (R)-4-(3-Cyclopropyl-1H-pyrazol-4-yl)-6-(3-(5-(3-hydroxy-1-methyl-2-oxopyrrolidin-3-yl)isoxazol-3-yl)phenyl)picolinamide] were, in that order, less than 100 nM and more than 501 nM.
Turning to `COc1ncc(-c2cc(C(N)=O)nc(-c3cccc(-c4cc([C@]5(O)CCN(C)C5=O)on4)c3)c2)s1` [Example 191, (R)-6-(3-(5-(3-Hydroxy-1-methyl-2-oxopyrrolidin-3-yl)isoxazol-3-yl)phenyl)-4-(2-methoxythiazol-5-yl)picolinamide], the IC50 was less than 100 nM in experiment [1] and 100 to 500 nM in experiment [2].
